Test [1] deals with T1, CFTR (Homo sapiens, UniProt P13569, DEL508-508).
T1 construct: Primary human bronchial epithelial cells from a ΔF508 homozygous CF donor; host or cells: primary human bronchial epithelial cells (CF-HBE), ΔF508 homozygous donor
Briefly: TECC24 AUC fold over DMSO @10 μM, CFTR-mediated transepithelial chloride transport in CF-HBE cells. The class given is cell-based. Particulars: test agent AUC divided by DMSO vehicle AUC, primary CF-HBE cells, ΔF508 homozygous donor, 48 hours incubation. Summed up: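 ΔF508-homozygous primary bronchial epithelial cells incubated 48 h at 36.5° C with compound (10 μM) in IL-13-containing medium, then TECC24 current-clamp recording in pH 7.4 Hepes saline with benzamil 10 μM, forskolin 10 μM, then CFTR inhibitor-172 20 μM. Equivalent Cl− current AUC between forskolin and inhibitor, expressed as fold over DMSO.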

For test [2], the target named is T2, NBD1 (Homo sapiens, UniProt P13569).
T2 construct: Purified recombinant NBD1 was produced using previously described methods; made in house
Kind of test: Aggregation analysis using differential static light scattering (DSLS), thermal stability of NBD1 (ΔTagg). Type of test: binding. Particulars: ΔTagg versus DMSO control, NBD1 0.2 mg/ml. Summed up:
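Read-out is ΔTagg: the aggregation temperature, taken at the inflection of the light-scattering curve, less the average of DMSO control wells. Recombinant NBD1 (0.2 mg/ml, pH7.6 buffer containing 2 mM ATP) with test compound was heated at 1° C. per minute up to 70° C.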

Each structure is given as a SMILES string.

T2 sequence (P13569 423-646 limits assumed): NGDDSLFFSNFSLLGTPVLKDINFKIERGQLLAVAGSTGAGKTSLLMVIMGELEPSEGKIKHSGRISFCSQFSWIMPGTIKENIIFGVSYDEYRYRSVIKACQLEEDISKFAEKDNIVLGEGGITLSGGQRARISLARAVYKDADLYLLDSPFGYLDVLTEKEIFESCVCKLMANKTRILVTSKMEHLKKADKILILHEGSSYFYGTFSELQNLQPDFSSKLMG
T1 sequence (P13569 with tags, fused parts or gaps DEL508-508): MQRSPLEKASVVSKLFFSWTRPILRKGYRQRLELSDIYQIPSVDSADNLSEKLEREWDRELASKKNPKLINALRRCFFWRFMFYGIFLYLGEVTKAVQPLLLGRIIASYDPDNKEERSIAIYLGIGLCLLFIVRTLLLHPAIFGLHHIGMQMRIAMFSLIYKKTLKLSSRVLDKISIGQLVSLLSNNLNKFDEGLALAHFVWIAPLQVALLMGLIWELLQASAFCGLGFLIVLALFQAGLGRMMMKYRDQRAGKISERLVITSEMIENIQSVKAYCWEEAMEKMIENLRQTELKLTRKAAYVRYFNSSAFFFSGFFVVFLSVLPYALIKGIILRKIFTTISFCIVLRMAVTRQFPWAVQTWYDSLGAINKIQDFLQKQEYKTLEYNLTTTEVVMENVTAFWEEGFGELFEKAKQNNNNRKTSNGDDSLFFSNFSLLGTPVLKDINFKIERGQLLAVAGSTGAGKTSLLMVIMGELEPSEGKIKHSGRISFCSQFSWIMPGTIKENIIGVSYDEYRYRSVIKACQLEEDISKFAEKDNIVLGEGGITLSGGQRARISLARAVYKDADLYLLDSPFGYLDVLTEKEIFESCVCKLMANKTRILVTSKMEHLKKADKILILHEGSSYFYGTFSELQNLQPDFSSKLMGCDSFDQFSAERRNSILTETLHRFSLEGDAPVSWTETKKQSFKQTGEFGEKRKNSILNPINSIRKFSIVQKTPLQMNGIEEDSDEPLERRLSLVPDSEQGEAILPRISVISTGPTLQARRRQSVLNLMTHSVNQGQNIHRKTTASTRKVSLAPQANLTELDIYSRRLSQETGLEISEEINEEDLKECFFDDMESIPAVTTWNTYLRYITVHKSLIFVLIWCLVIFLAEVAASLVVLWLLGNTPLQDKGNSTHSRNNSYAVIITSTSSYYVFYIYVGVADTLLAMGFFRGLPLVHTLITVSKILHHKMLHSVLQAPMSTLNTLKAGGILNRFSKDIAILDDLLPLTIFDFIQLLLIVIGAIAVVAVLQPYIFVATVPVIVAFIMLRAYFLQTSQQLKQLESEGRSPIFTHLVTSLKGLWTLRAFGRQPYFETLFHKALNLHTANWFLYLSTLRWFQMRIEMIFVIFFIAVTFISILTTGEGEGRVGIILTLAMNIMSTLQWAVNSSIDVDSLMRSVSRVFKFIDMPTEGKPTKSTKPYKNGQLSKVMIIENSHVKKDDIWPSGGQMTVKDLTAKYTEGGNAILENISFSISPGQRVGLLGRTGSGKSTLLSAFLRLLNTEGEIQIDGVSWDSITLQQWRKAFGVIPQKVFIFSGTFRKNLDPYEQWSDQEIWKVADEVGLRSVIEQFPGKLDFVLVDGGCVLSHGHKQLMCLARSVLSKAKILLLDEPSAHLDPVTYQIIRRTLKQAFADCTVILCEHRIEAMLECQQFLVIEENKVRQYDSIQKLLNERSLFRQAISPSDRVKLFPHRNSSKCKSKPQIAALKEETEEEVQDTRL

Regarding `Cn1nc2nc1-c1cc(ccc1F)Oc1c(F)cc3[nH]ccc3c1CCS(=O)(=O)CC(C)(C)OCCC2(C)c1cccc(CCO)c1` (stereo not shown) [Compound 78, 2-[3-(22,28-Difluoro-3,6,10,10-tetramethyl-12,12-dioxo-9,24-dioxa-12lambda6-thia-3,4,19,30-tetrazapentacyclo-[23.3.1.12,5.015,23.016,20]triaconta-1(29),2(30),4,15,17,20,22,25,27-nonaen-6-yl)phenyl]-ethanol], the “TECC (AUC, 10 μM)” value in test [1] was “A (a TECC value less than 12 is marked “A”)”. Moreover, the “DSLS 3D (100 μM ΔT)” value in test [2] is “B (a value above 5 °C and less than or equal to 10 °C is marked “B”)”.
As for `CCOC(=O)CCc1cccc(C2CCS(=O)(=O)CCS(=O)(=O)CCc3c(c(F)cc4[nH]ccc34)Oc3ccc(F)c(c3)-c3ccn2n3)c1` (stereo not shown) [Compound 92, Ethyl 3-[3-(22,28-difluoro-9,9,12,12-tetraoxo-24-oxa-9lambda6,12lambda6-dithia-5,19,30-triazapentacyclo[23.3.1.12,5.015,23.016,20]triaconta-1(29),2(30),3,15,17,20,22,25,27-nonaen-6-yl)phenyl]propanoate], the “TECC (AUC, 10 μM)” value in test [1] is on record as “A (a TECC value less than 12 is marked “A”)”. Also, in test [2], the “DSLS 3D (100 μM ΔT)” value is “A (an ΔTagg value less than or equal to 5 °C is marked “A”)”.
`Cn1nc2nc1-c1cc(ccc1F)Oc1c(F)cc3[nH]ccc3c1Cc1ccnn1CCS(=O)(=O)CCC2(C)c1cccc(CCC(=O)O)c1` (stereo not shown) [Compound 99, 3-[3-(25,31-Difluoro-3,6-dimethyl-9,9-dioxo-27-oxa-9λ6-thia-3,4,12,13,22,33-hexazahexacyclo[26.3.1.12,5.012,16.018,26.019,23]tritriaconta-1(32),2(33),4,13,15,18,20,23,25,28,30-undecaen-6-yl)phenyl]propanoic Acid]: the “TECC (AUC, 10 μM)” value in test [1] is recorded as “A (a TECC value less than 12 is marked “A”)”. Also, the “DSLS 3D (100 μM ΔT)” value in test [2] was “A (an ΔTagg value less than or equal to 5 °C is marked “A”)”.
Regarding `Cn1nc2nc1-c1cc(ccc1F)Oc1c(F)cc3[nH]ccc3c1CCS(=O)(=O)CC(C)(C)CCCC2(CO)c1cccc(CCC(=O)O)c1` (stereo not shown) [Compound 103, 3-[3-[22,28-Difluoro-6-(hydroxymethyl)-3,10,10-trimethyl-12,12-dioxo-24-oxa-12lambda6-thia-3,4,19,30-tetrazapentacyclo[23.3.1.12,5.015,23.016,20]triaconta-1(29),2(30),4,15,17,20,22,25,27-nonaen-6-yl]phenyl]propanoic Acid], the “TECC (AUC, 10 μM)” value in test [1] is given as “A (a TECC value less than 12 is marked “A”)”. In addition, in test [2], the “DSLS 3D (100 μM ΔT)” value is “C (a value greater than 10 °C and less than or equal to 25 °C is marked “C”)”.
As for `Cn1nc2nc1-c1cc(ccc1F)Oc1c(F)cc3[nH]ccc3c1CCS(=O)(=O)CC(C)(C)CCCC2(C#N)c1cccc(CCC(=O)O)c1` (stereo not shown) [Compound 104, 3-[3-(6-Cyano-22,28-difluoro-3,10,10-trimethyl-12,12-dioxo-24-oxa-12lambda6-thia-3,4,19,30-tetrazapentacyclo[23.3.1.12,5.015,23.016,20]triaconta-1(29),2(30),4,15,17,20,22,25,27-nonaen-6-yl)phenyl]propanoic Acid], the “TECC (AUC, 10 μM)” value in test [1] was “C (a value between 20 and 80 is marked “C”)”. In addition, in test [2], the “DSLS 3D (100 μM ΔT)” value was “C (a value greater than 10 °C and less than or equal to 25 °C is marked “C”)”.
Take `Cn1nc2nc1-c1cc(ccc1F)Oc1c(F)cc3[nH]ccc3c1CCS(=O)(=O)CC(C)(C)CCCC2(CF)c1cccc(CCC(=O)O)c1` (stereo not shown) [Compound 105, 3-[3-[22,28-Difluoro-6-(fluoromethyl)-3,10,10-trimethyl-12,12-dioxo-24-oxa-12lambda6-thia-3,4,19,30-tetrazapentacyclo-[23.3.1.12,5.015,23.016,20]triaconta-1(29),2(30),4,15,17,20,22,25,27-nonaen-6-yl]phenyl]propanoic acid]: the “TECC (AUC, 10 μM)” value in test [1] is listed as “A (a TECC value less than 12 is marked “A”)”. Also, in test [2], the “DSLS 3D (100 μM ΔT)” value was “B (a value above 5 °C and less than or equal to 10 °C is marked “B”)”.
Turning to `Cn1nc2nc1-c1cc(ccc1F)Oc1c(F)cc3[nH]ccc3c1CCS(=O)(=O)CC(C)(C)C(F)(F)CCC2(C)c1cccc(CCC(=O)O)c1` (stereo not shown) [Compound 106, 3-[3-(9,9,22,28-Tetrafluoro-3,6,10,10-tetramethyl-12,12-dioxo-24-oxa-12lambda6-thia-3,4,19,30-tetrazapentacyclo[23.3.1.12,5.015,23.016,20]triaconta-1(29),2(30),4,15,17,20,22,25,27-nonaen-6-yl)phenyl]propanoic Acid], the “TECC (AUC, 10 μM)” value in test [1] was “A (a TECC value less than 12 is marked “A”)”. In addition, the “DSLS 3D (100 μM ΔT)” value in test [2] is “C (a value greater than 10 °C and less than or equal to 25 °C is marked “C”)”.
Take `Cn1nc2nc1-c1cc(ccc1F)Oc1c(F)cc3[nH]ccc3c1CCS(=O)(=O)CC(C)(C)/C(F)=C/CC2(C)c1cccc(CCC(=O)O)c1` (stereo not shown) [Compound 107, 3-[3-[(8Z)-9,22,28-Trifluoro-3,6,10,10-tetramethyl-12,12-dioxo-24-oxa-12lambda6-thia-3,4,19,30-tetrazapentacyclo-[23.3.1.12,5.015,23.016,20]triaconta-1(29),2(30),4,8,15,17,20,22,25,27-decaen-6-yl]phenyl]propanoic acid]: the “TECC (AUC, 10 μM)” value in test [1] was “A (a TECC value less than 12 is marked “A”)”. The “DSLS 3D (100 μM ΔT)” value in test [2] is “C (a value greater than 10 °C and less than or equal to 25 °C is marked “C”)”.
`CC(Cc1cccc(C2(C)CCS(=O)(=O)CC(C)(C)c3cnn(c3)Cc3c(c(F)cc4[nH]ccc34)Oc3ccc(F)c(c3)-c3nc2nn3C)c1)C(=O)O` (stereo not shown) [Compound 110, 3-[3-(24,30-Difluoro-3,6,11,11-tetramethyl-9,9-dioxo-26-oxa-9lambda6-thia-3,4,14,15,21,33-hexazahexacyclo-[25.3.1.12,5.112,15.017,25.018,22]tritriaconta-1(31),2(33),4,12(32),13,17,19,22,24,27,29-undecaen-6-yl)phenyl]-2-methyl-propanoic Acid]: the “TECC (AUC, 10 μM)” value in test [1] is “C (a value between 20 and 80 is marked “C”)”. Also, in test [2], the “DSLS 3D (100 μM ΔT)” value is “B (a value above 5 °C and less than or equal to 10 °C is marked “B”)”.
As for `Cn1nc2nc1-c1cc(ccc1F)Oc1c(F)cc3[nH]ccc3c1Cn1cc(cn1)C(C)(C)S(=O)(=O)CCCC2(C)c1cccc(CCC(=O)O)c1` (stereo not shown) [Compound 111, 3-[3-(24,30-Difluoro-3,6,11,11-tetramethyl-10,10-dioxo-26-oxa-10λ6-thia-3,4,14,15,21,33-hexazahexacyclo[25.3.1.12,5.112,15.017,25.018,22]-tritriaconta-1(31),2(33),4,12(32),13,17,19,22,24,27,29-undecaen-6-yl)phenyl]propanoic Acid], in test [1], the “TECC (AUC, 10 μM)” value is “B (a value between 12-20 is marked “B”)”. The “DSLS 3D (100 μM ΔT)” value in test [2] was “C (a value greater than 10 °C and less than or equal to 25 °C is marked “C”)”.
Take `CC(Cc1cccc(C2(C)CCS(=O)(=O)CCS(=O)(=O)CCc3c(c(F)cc4[nH]ccc34)Oc3ccc(F)c(c3)-c3nc2nn3C)c1)C(=O)O` (stereo not shown) [Compound 112, 3-[3-(22,28-Difluoro-3,6-dimethyl-9,9,12,12-tetraoxo-24-oxa-9lambda6,12lambda6-dithia-3,4,19,30-tetrazapentacyclo[23.3.1.12,5.015,23.016,20]triaconta-1(29),2(30),4,15,17,20,22,25,27-nonaen-6-yl)phenyl]-2-methyl-propanoic Acid]: the “TECC (AUC, 10 μM)” value in test [1] is “A (a TECC value less than 12 is marked “A”)”. In addition, in test [2], the “DSLS 3D (100 μM ΔT)” value is “B (a value above 5 °C and less than or equal to 10 °C is marked “B”)”.
`CC(Cc1cccc(C2CCCC(C)(C)CS(=O)(=O)CCc3c(c(F)cc4[nH]ccc34)Oc3ccc(F)c(c3)-c3nc2nn3C)c1)C(=O)O` (stereo not shown) [Compound 114, 3-[3-(22,28-Difluoro-3,10,10-trimethyl-12,12-dioxo-24-oxa-12λ6-thia-3,4,19,30-tetrazapentacyclo[23.3.1.12,5.015,23.016,20]triaconta-1(29),2(30),4,15,17,20,22,25,27-nonaen-6-yl)phenyl]-2-methyl-propanoic Acid]: the “TECC (AUC, 10 μM)” value in test [1] is reported as “B (a value between 12-20 is marked “B”)”. Moreover, the “DSLS 3D (100 μM ΔT)” value in test [2] is “C (a value greater than 10 °C and less than or equal to 25 °C is marked “C”)”.
As for `CC(Cc1cccc(C2(C3SCCS3)CCCC(C)(C)CS(=O)(=O)CCc3c(c(F)cc4[nH]ccc34)Oc3ccc(F)c(c3)-c3nc2nn3C)c1)C(=O)O` (stereo not shown) [Compound 115, 3-[3-[6-(1,3-Dithiolan-2-yl)-22,28-difluoro-3,10,10-trimethyl-12,12-dioxo-24-oxa-12λ6-thia-3,4,19,30-tetrazapentacyclo-[23.3.1.12,5.015,23.016,20]triaconta-1(29),2(30),4,15,17,20,22,25,27-nonaen-6-yl]phenyl]-2-methyl-propanoic Acid], the “TECC (AUC, 10 μM)” value in test [1] is given as “A (a TECC value less than 12 is marked “A”)”. Moreover, the “DSLS 3D (100 μM ΔT)” value in test [2] was “C (a value greater than 10 °C and less than or equal to 25 °C is marked “C”)”.
`Cn1nc2nc1-c1cc(ccc1F)Oc1c(F)cc3[nH]cnc3c1CCS(=O)(=O)CC(C)(C)CCCC2(C)c1cccc(CCC(=O)O)c1` (stereo not shown) [Compound 116, 3-[3-(22,28-Difluoro-3,6,10,10-tetramethyl-12,12-dioxo-24-oxa-12λ6-thia-3,4,17,19,30-pentazapentacyclo[23.3.1.12,5.015,23.016,20]triaconta-1(29),2(30),4,15,17,20,22,25,27-nonaen-6-yl)phenyl]propanoic Acid]: the “TECC (AUC, 10 μM)” value in test [1] is listed as “A (a TECC value less than 12 is marked “A”)”. For the same molecule, the “DSLS 3D (100 μM ΔT)” value in test [2] was “C (a value greater than 10 °C and less than or equal to 25 °C is marked “C”)”.
